Reference: patent US20140351963A1, “MiRNAs Useful to Reduce Lung Cancer Tumorigenesis and Chemotherapy Resistance and Related Compositions and Methods” (Ohio State Innovation Foundation, priority 2011, published 2014)

What was measured:
[1] = tested on: mesenchymal markers and E-cadherin; test: Expression of epithelial and mesenchymal markers (immunofluorescence, immunoblot, qRT-PCR); assay type: cell-based, human; conditions: Calu-1
Procedure: Cells were grown on Lab-Tek II CC2 chamber slides (Nunc), fixed with 4% paraformaldehyde and permeabilized with 0.2% Triton X-100/PBS before blocking with 10% sheep serum (Caltag Laboratories). All the primary antibodies were from Abcam. Secondary antibodies were goat antibodies to mouse or rabbit coupled to Alexa 488 (Invitrogen). F-actin was stained by using a phalloidin reagent (Invitrogen). Cell nuclei were visualized with DAPI (Sigma). Slides were mounted with SlowFade Gold Antifade reagent (Invitrogen).
(§1) Total proteins from NSCLC were extracted with radioimmunoprecipitation assay (PIRA) buffer ([…], pH 7.5, 1% Triton, 0.1% SDS, 0.1% sodium deoxycholate and 1% Nonidet P40). Sample extract (50 μg) was resolved on 7.5-12% SDS-polyacriylamide gels (PAGS) using a mini-gel apparatus (Bio-Rad Laboratories) and transferred to Hybond-C extra nitrocellulose. Membranes were blocked for 1 h with 5% nonfat dry milk in Tris-buffered saline containing 0.05% Tween 20, incubated overnight with primary antibody, washed and incubated with secondary antibody, and visualized by chemiluminescence.
(§2) Real-time PCR was performed using a standard TaqMan PCR Kit protocol on an Applied Biosystems 7900HT Sequence Detection System (Applied Biosystems). The 10 pl PCR reaction included 0.67 pl RT product, 1 pl TaqMan Universal PCR Master Mix (Applied Biosystems), […]. The reactions were incubated in a 96-well plate at 95° C. for […], followed by 40 cycles of 95° C. for 15 s and 60° C. for 1 mM All reactions were run in triplicate. The threshold cycle (CT) is defined as the fractional cycle number at which the fluorescence passes the fixed threshold. The comparative CT method for relative quantization of gene expression (Applied Biosystems) was used to determine miRNA and genes expression levels. The y axis represents the 2^(−ΔCT), or the relative expression of the different miRs and genes. MiRs expression was calculated relative to U44 and U48 rRNA (for microRNAs) and to GAPDH (for genes). Experiments were carried out in triplicate for each data point, and data analysis was performed by using software (Bio-Rad).

NSCLCs = test: Transwell migration assay; assay type: cell-based; conditions: 24 h
Procedure: Transwell insert chambers with an 8-μm porous membrane (Greiner Bio One) were used for the assay. Cells were washed three times with PBS and added to the top chamber in serum-free medium. The bottom chamber was filled with medium containing 10% FBS. Cells were incubated for 24 h at 37° C. in a 5% CO2 humidified incubator. To quantify migrating cells, cells in the top chamber were removed by using a cotton-tipped swab, and the migrated cells were fixed in PBS, 25% glutaraldehyde and stained with crystal violet stain, visualized under a phase-contrast microscope and photographed. Crystalviolet-stained cells were then solubilized in acetic acid and methanol (1:1), and absorbance was measured at 595 nm.

AKT/ERKs pathways = test: Western blot of AKT/ERKs pathways after miRNA enforced expression; assay type: cell-based; conditions: A549; miRNA overexpression
Procedure: as §1
(§3) The following primary antibodies were used: Apaf-1, Snail, Slug (abcam), Src, Met, Dicer, Vimintin, E-cadherin, Zeb1, Zeb-2 (Santa Cruz), Bim, pErks, total Erks, pAkt, total Akt, GAPDH, Parp (cell signaling, Pkc-ε, (BD transduction lab), β-actin antibody, Fibronectin (Sigma). A secondary anti-rabbit or anti-mouse immunoglobulin G (IgG) antibody peroxidase conjugate (Chemicon) was used.

A549 cells [2] = test: A549 xenograft in nude mice with gefitinib treatment; assay type: in vivo; conditions: for Tumor growth: nude mice injected s.c. with stably infected A549 cells, 35 days; for Sensitivity to gefitinib-induced apoptosis in vivo: nude mice, stably infected A549 cells, gefitinib 200 mg/kg oral gavage, 2 weeks
Procedure: A549 cells were stably infected with a control miRNA, miR-103 and miR-203 or with control inhibitor of miRNA or a lentiviral inhibitor of miR-221 and miR-30c (SBI). We injected 5×10^6 viable cells subcutaneously into the right flanks of 6-week-old male nude mice (Charles River Breeding Laboratories). Treatment was started 7 d after tumor cell inoculation. […] Tumor size was assessed twice per week using a digital caliper. Tumor volumes were determined by measuring the length (1) and the width (w) of the tumor and calculating the volume (V=lw^2/2). We killed the mice 35 days after injection. Statistical significance between the control and treated mice was evaluated using a Student's t test. Mouse experiments were conducted after approval by the institutional animal care and use committee at Ohio State University.
A549 cells were stably infected with the Human pre-microRNA Expression Construct Lenti-miR expression plasmid containing the full-length miR-103, miR-203 or the anti-miR-221, miR-30c and the GFP gene under the control of two different promoters (System Biosciences). An empty vector was used as control. Pre-miRs expression and control constructs were packaged with pPACKH1 Lentivector Packaging Plasmid mix (System Biosciences) in a 293TN packaging cell line. Viruses were concentrated using PEGit Virus Precipitation Solution, and titers were analyzed using the UltraRapid Lentiviral Titer Kit (System Biosciences). Infected cells were selected by FACS analysis (FACScalibur; BD Bioscience). Infection efficiency >90% was verified by fluorescent microscopy and confirmed by real-time PCR for miRs expression.

A549 cells [3] = test: Cell-cycle analysis by flow cytometry; assay type: cell-based
Procedure: (§4) For cell-cycle analysis, cells were plated in 6 cm dishes, transfected as indicated in the figures, trypsinized, washed in PBS, and fixed with ice-cold 70% ethanol while vortexing. Cells were rehydrated in PBS and stained 30 min at RT with propidium iodide ([…] PI, 0.5 mg/ml RNase in PBS) prior to flow-cytometric analysis. Every experiment was repeated 5 times independently, with two replicas for each sample.

Calu-1 cells [4] = test: Cell-cycle analysis by flow cytometry; assay type: cell-based, human
Procedure: as §4

Calu-1 cells [5] = test: Cell viability (MTS) and caspase 3/7 assays with gefitinib; assay type: cell-based, human; conditions: for Gefitinib sensitivity of transfected cells (caspase-3/7 and viability assays): Calu-1
Procedure: (§5) For detection of caspase 3/7 activity, cells were cultured in 96-well plates, in triplicate, treated with 5 μM, 10 μM or 15 μM gefitinig and analyzed using a Caspase-Glo 3/7 Assay kit (Promega) according to the manufacturer's instructions. Continuous variables are expressed as means±s.d. Cell viability was examined with 3-(4,5dimethylthiazol-2-yl)-2,5-dipheniltetrazolium bromide (MTS)-Cell Titer 96 AQueous One Solution Cell Proliferation Assay (Promega) according to the manufacturer's protocol. Metabolically active cells were detected by adding 20 μl of MTS to each well. After 1 h of incubation, the plates were analyzed in a Multilabel Counter (Bio-Rad Laboratories).

PKC-ε and SRC = test: Western blot of PKC-ε and SRC protein; assay type: cell-based, human
Procedure: as §1, §3

PC9 cells = test: Cell viability (MTS) and caspase 3/7 assays with gefitinib; assay type: cell-based; conditions: PC9 EGFR mutant; even at low doses (0.1 μM), 24 h
Procedure: as §5

phosphorylated ERKs = test: Western blot of ERK phosphorylation after gefitinib; assay type: cell-based; conditions: 24 h; for Concentration of phosphorylated ERKs compared to untreated cells: 5 μM or 10 μM gefitinib; for ERKs phosphorylation after gefitinib: 5 or 10 μM gefitinib
Procedure: as §1, §3

BIM and APAF-1 = test: Western blot of BIM and APAF-1 protein; assay type: cell-based, human; conditions: 24 h; for BIM and APAF-1 protein after gefitinib: 5 μM or 10 μM gefitinib; for APAF-1 and BIM expression after gefitinib: 5 or 10 μM gefitinib
Procedure: as §1, §3

[6] = tested on: miR-30b, miR-30c, miR-221 and miR-222; test: qRT-PCR of miRNA expression after drug treatment; assay type: cell-based, human; conditions: for miR-30b, miR-30c, miR-221 and miR-222 expression after gefitinib: 5 μM or 10 μM gefitinib; for miR-221, miR-222, miR-30b and miR-30c expression after gefitinib: 10 μM gefitinib, 24 h
Procedure: as §2

[7] = tested on: miR-21, miR-29a, miR-29c and miR-100; test: qRT-PCR of miRNA expression after drug treatment; assay type: cell-based, human; conditions: 5 and 10 μM gefitinib
Procedure: as §2

Dicer = test: Western blot of Dicer; assay type: cell-based; conditions: Calu-1
Procedure: as §1, §3

miR-103 and miR-203 = test: qRT-PCR of miRNA expression after drug treatment; assay type: cell-based, human; conditions: Calu-1; 1 and 3 μM, 24, 48 and 72 h; P<0.05
Procedure: as §2

[8] = SU11274 treated Calu-1 cells exposed to different concentrations of gefitinib, 24 h

miR-203: synthetic miR-203 or lentiviral construct containing full-length miR-203; targets SRC (CTAGTGGTCCTAAACATTTCAC; listed as DNA, chemistry not given here)
E-cadherin expression [1]: increased | Expression of mesenchymal markers [1]: downregulation | Migration reduced compared to controls (NSCLCs): about 60% | Phosphorylation of AKT, GSK3β and the ERKs (AKT/ERKs pathways): reduced phosphorylation | Tumor growth (A549 cells [2]): marked inhibition | Sensitivity to gefitinib-induced apoptosis in vivo (A549 cells [2]): increased sensitivity | Cell cycle distribution (G1 fraction; S and G2-M phases) (A549 cells [3]): increased G1 cell fraction | Cell cycle distribution (G1 fraction; S and G2-M phases) (Calu-1 cells [4]): increased G1 cell fraction | Gefitinib sensitivity of transfected cells (caspase-3/7 and viability assays) (Calu-1 cells [5]): increased the sensitivity | Concentrations of PKC-ε and SRC protein after enforced miRNA expression (PKC-ε and SRC): clearly reduced

COc1cc2ncnc(Nc3ccc(F)c(Cl)c3)c2cc1OCCCN1CCOCC1 [gefitinib]
Cell growth / viability relative to untreated controls (PC9 cells): significantly inhibited | Concentration of phosphorylated ERKs compared to untreated cells (phosphorylated ERKs; HCC827): markedly lower | ERKs phosphorylation after gefitinib (phosphorylated ERKs; HCC827GR): did not change | Concentration of phosphorylated ERKs compared to untreated cells (phosphorylated ERKs; PC9): markedly lower | ERKs phosphorylation after gefitinib (phosphorylated ERKs; PC9GR): did not change | BIM and APAF-1 protein after gefitinib (BIM and APAF-1; HCC827): increased amounts | APAF-1 and BIM expression after gefitinib (BIM and APAF-1; HCC827GR): did not change | BIM and APAF-1 protein after gefitinib (BIM and APAF-1; PC9): increased amounts | APAF-1 and BIM expression after gefitinib (BIM and APAF-1; PC9GR): did not change | miR-30b, miR-30c, miR-221 and miR-222 expression after gefitinib ([6]; A549 gefitinib-resistant): does not decrease | miR-30b, miR-30c, miR-221 and miR-222 expression after gefitinib ([6]; Calu-1 gefitinib-resistant): does not decrease | miR-30b, miR-30c, miR-221 and miR-222 expression after gefitinib ([6]; HCC827): downregulation | miR-221, miR-222, miR-30b and miR-30c expression after gefitinib ([6]; HCC827 GR): did not decrease | miR-30b, miR-30c, miR-221 and miR-222 expression after gefitinib ([6]; PC9): downregulation | miR-221, miR-222, miR-30b and miR-30c expression after gefitinib ([6]; PC9 GR): did not decrease | miR-21, miR-29a, miR-29c and miR-100 expression after gefitinib ([7]; HCC827): downregulated | Downregulation of miR-21, miR-29a, miR-29c and miR-100 after gefitinib ([7]; HCC827 GR): not observed | miR-21, miR-29a, miR-29c and miR-100 expression after gefitinib ([7]; PC9): downregulated | Downregulation of miR-21, miR-29a, miR-29c and miR-100 after gefitinib ([7]; PC9 GR): not observed

miR-103: synthetic miR-103 or lentiviral construct containing full-length miR-103; targets PKC-ε and Dicer (AGCAGCATTGTACAGGGCTATGA; listed as DNA, chemistry not given here)
E-cadherin expression [1]: increased | Expression of mesenchymal markers [1]: downregulation | Migration reduced compared to controls (NSCLCs): about 60% | Phosphorylation of AKT, GSK3β and the ERKs (AKT/ERKs pathways): reduced phosphorylation | Tumor growth (A549 cells [2]): marked inhibition | Sensitivity to gefitinib-induced apoptosis in vivo (A549 cells [2]): increased sensitivity | Dicer level (Dicer): marked down-regulation | Cell cycle distribution (G1 fraction; S and G2-M phases) (A549 cells [3]): increased G1 cell fraction | Cell cycle distribution (G1 fraction; S and G2-M phases) (Calu-1 cells [4]): increased G1 cell fraction | Gefitinib sensitivity of transfected cells (caspase-3/7 and viability assays) (Calu-1 cells [5]): increased the sensitivity | Concentrations of PKC-ε and SRC protein after enforced miRNA expression (PKC-ε and SRC): clearly reduced

Cc1[nH]c(/C=C2\C(=O)Nc3ccc(S(=O)(=O)N(C)c4cccc(Cl)c4)cc32)c(C)c1C(=O)N1CCN(C)CC1 [SU11274]
Caspase-3/7 activity on exposure to gefitinib (Calu-1 cells [5]; [8]): increased | Cell viability on exposure to gefitinib (Calu-1 cells [5]; [8]): decreased | miR-103 and miR-203 expression after SU11274 (miR-103 and miR-203): increased | miR-30b/c and miR-221/miR-222 expression after SU11274 ([6]; Calu-1, 1 and 3 μM, 24, 48 and 72 h): down-regulation
